Results reported in the NIST ThermoML archive (doi:10.1021/je049612f).

Settings: Gas, Vibrating wire viscometry

FS(F)(F)(F)(F)F [sulfur hexafluoride]
Settings	viscosity [mPa·s]
375 K, 11030 kPa	0.06052
375 K, 11466 kPa	0.06322
375 K, 12235 kPa	0.0678
375 K, 12730 kPa	0.07044
375 K, 13213 kPa	0.07319
375 K, 13867 kPa	0.07655
375 K, 14447 kPa	0.07948
375 K, 15713 kPa	0.08527
375 K, 16802 kPa	0.09
400 K, 100.75 kPa	0.0197
400 K, 127.69 kPa	0.01971
400 K, 153.61 kPa	0.01972
400 K, 174.48 kPa	0.01973
400 K, 200.5 kPa	0.01973
400 K, 224.7 kPa	0.01975
400 K, 249.97 kPa	0.01975
400 K, 276.92 kPa	0.01976
400 K, 316.57 kPa	0.01977
400 K, 356.06 kPa	0.01979
400 K, 387.16 kPa	0.0198
400 K, 431.42 kPa	0.01981
400 K, 458.7 kPa	0.01982
400 K, 482.84 kPa	0.01983
400 K, 520.38 kPa	0.01984
400 K, 569.64 kPa	0.01987
400 K, 636.33 kPa	0.01989
400 K, 669.9 kPa	0.0199
400 K, 702.5 kPa	0.01991
400 K, 753.74 kPa	0.01994
400 K, 791.41 kPa	0.01995
400 K, 818.44 kPa	0.01996
400 K, 853.97 kPa	0.01998
400 K, 930.59 kPa	0.02001
400 K, 972.98 kPa	0.02003
400 K, 1025.6 kPa	0.02006
400 K, 1088.2 kPa	0.02009
400 K, 1153.3 kPa	0.02012
400 K, 1240.9 kPa	0.02017
400 K, 1319.7 kPa	0.02022
400 K, 1397.4 kPa	0.02025
400 K, 1462.5 kPa	0.02029
400 K, 1615.7 kPa	0.02039
400 K, 1688.5 kPa	0.02043
400 K, 1768 kPa	0.02049
400 K, 1876.4 kPa	0.02057
400 K, 1956 kPa	0.02063
400 K, 2349.8 kPa	0.02093
400 K, 2474.2 kPa	0.02104
400 K, 2539.4 kPa	0.02109
400 K, 2835.4 kPa	0.02138
400 K, 3021.7 kPa	0.02156
400 K, 3266.3 kPa	0.02184
400 K, 3463.7 kPa	0.02205
400 K, 3614.2 kPa	0.02225
400 K, 3864.1 kPa	0.02256
400 K, 4152.9 kPa	0.02298
400 K, 4564.1 kPa	0.02363
400 K, 4898.5 kPa	0.02421
400 K, 5193.2 kPa	0.02477
400 K, 5460.7 kPa	0.02531
400 K, 5742.7 kPa	0.02594
400 K, 6016.6 kPa	0.02658
400 K, 6359.6 kPa	0.02746
400 K, 6659.9 kPa	0.02831
400 K, 6950.7 kPa	0.02917
400 K, 7241 kPa	0.03009
400 K, 7553 kPa	0.03115
400 K, 7833.9 kPa	0.03216
400 K, 8142 kPa	0.03332
400 K, 8490.6 kPa	0.03475
400 K, 8799 kPa	0.03604
400 K, 9139.9 kPa	0.0375
400 K, 9483.5 kPa	0.03903
400 K, 9833.2 kPa	0.0407
400 K, 10191 kPa	0.04234
400 K, 10589 kPa	0.04429
400 K, 11000 kPa	0.04619
400 K, 11434 kPa	0.04827
400 K, 11902 kPa	0.05055
400 K, 12397 kPa	0.05295
400 K, 12979 kPa	0.05567
400 K, 13719 kPa	0.05901
400 K, 14342 kPa	0.06179
400 K, 15061 kPa	0.06486
400 K, 15882 kPa	0.0684
400 K, 16792 kPa	0.07201
400 K, 17814 kPa	0.076
400 K, 18718 kPa	0.07939
400 K, 19958 kPa	0.08386
425 K, 94.41 kPa	0.02078
425 K, 120.34 kPa	0.0208
425 K, 155.2 kPa	0.02081
425 K, 171.36 kPa	0.02081
425 K, 192.07 kPa	0.02082
425 K, 205.12 kPa	0.02083
425 K, 228.29 kPa	0.02084
425 K, 263.75 kPa	0.02085
425 K, 289.54 kPa	0.02086
425 K, 311.35 kPa	0.02086
425 K, 345.33 kPa	0.02088
425 K, 374.1 kPa	0.02088
425 K, 392.73 kPa	0.02089
425 K, 424.79 kPa	0.0209
425 K, 466.85 kPa	0.02092
425 K, 503.16 kPa	0.02093
425 K, 552.86 kPa	0.02095
425 K, 598.07 kPa	0.02097
425 K, 629.86 kPa	0.02098
425 K, 668.63 kPa	0.021
425 K, 715.37 kPa	0.02101
425 K, 764.24 kPa	0.02103
425 K, 813.31 kPa	0.02105
425 K, 867.54 kPa	0.02108
425 K, 939.66 kPa	0.02111
425 K, 997 kPa	0.02114
425 K, 1067.1 kPa	0.02117
425 K, 1141.5 kPa	0.02121
425 K, 1213.4 kPa	0.02124
425 K, 1299.4 kPa	0.02129
425 K, 1385.6 kPa	0.02133
425 K, 1442.8 kPa	0.02137
425 K, 1506.3 kPa	0.02141
425 K, 1587.6 kPa	0.02145
425 K, 1656.3 kPa	0.02149
425 K, 1757.6 kPa	0.02155
425 K, 1833.5 kPa	0.0216
425 K, 1920.5 kPa	0.02166
425 K, 2344.2 kPa	0.02196
425 K, 2479.6 kPa	0.02206
425 K, 2578.5 kPa	0.02214
425 K, 2931.1 kPa	0.02244
425 K, 3150.4 kPa	0.02264
425 K, 3325.5 kPa	0.02282
425 K, 3586.1 kPa	0.02307
425 K, 3797.1 kPa	0.0233
425 K, 4066.4 kPa	0.02362
425 K, 4298.8 kPa	0.02388
425 K, 4546.2 kPa	0.0242
425 K, 4863.6 kPa	0.02464
425 K, 5124.6 kPa	0.02501
425 K, 5454.2 kPa	0.02553
425 K, 5739.4 kPa	0.026
425 K, 6056.4 kPa	0.02654
425 K, 6339.5 kPa	0.02706
425 K, 6654.3 kPa	0.02768
425 K, 7006 kPa	0.0284
425 K, 7363.2 kPa	0.02921
425 K, 7712.7 kPa	0.03006
425 K, 8064.1 kPa	0.03097
425 K, 8392.3 kPa	0.03179
425 K, 8760.7 kPa	0.03277
425 K, 9135.4 kPa	0.03386
425 K, 9514.5 kPa	0.03501
425 K, 9876.1 kPa	0.03614
425 K, 10296 kPa	0.03744
425 K, 10899 kPa	0.03948
425 K, 11563 kPa	0.04171
425 K, 11725 kPa	0.04223
425 K, 12199 kPa	0.04389
425 K, 12731 kPa	0.04579
425 K, 13246 kPa	0.04767
425 K, 14152 kPa	0.0509
425 K, 14767 kPa	0.05309
425 K, 15462 kPa	0.05563
425 K, 16201 kPa	0.05822
425 K, 17025 kPa	0.06094
425 K, 17904 kPa	0.06397
425 K, 18751 kPa	0.06707
425 K, 19579 kPa	0.06993
425 K, 20442 kPa	0.07271
